Measurements taken from patent publication US11572398B2, “GLP-1 derivatives and uses thereof” (Novo Nordisk A/S, priority 2014, dated 2023).
Like-named read-outs stand apart in the source and are kept apart here.

Key:
[1] = target: T1, human GLP-1 receptor (Homo sapiens, UniProt P43220); assay: GLP-1 receptor binding: competitive binding assay (125I-GLP-1, SPA) on isolated membranes at low and high HSA
T1 construct: expressed in transfected cells; host or cells: BHK cells (parent line BHKTS13), clone FCW467-12A; membrane preparation
T1 sequence (P43220 24-463): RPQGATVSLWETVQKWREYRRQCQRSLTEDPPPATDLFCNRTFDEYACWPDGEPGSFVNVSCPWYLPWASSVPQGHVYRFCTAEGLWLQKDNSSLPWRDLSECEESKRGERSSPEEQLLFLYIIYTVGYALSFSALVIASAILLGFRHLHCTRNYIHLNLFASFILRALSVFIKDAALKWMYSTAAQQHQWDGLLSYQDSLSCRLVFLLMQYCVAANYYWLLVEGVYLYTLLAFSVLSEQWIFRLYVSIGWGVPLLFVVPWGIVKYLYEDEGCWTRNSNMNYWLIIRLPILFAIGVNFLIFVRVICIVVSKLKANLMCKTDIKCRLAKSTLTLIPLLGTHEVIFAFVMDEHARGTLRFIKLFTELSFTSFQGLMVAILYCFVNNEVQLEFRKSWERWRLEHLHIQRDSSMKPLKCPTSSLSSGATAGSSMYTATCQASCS
Description: The purpose of this example is to test the receptor binding of the GLP-1 derivatives in vitro. The receptor binding is a measure of affinity of a derivative for the human GLP-1 receptor.
Each derivative is added in a series of concentrations to isolated membranes containing the human GLP-1 receptor and displacement of the labelled ligand is monitored. The receptor binding is reported as the concentration at which half of the labelled ligand is displaced from the receptor, the IC50 value.
Buffer 1 consisted of 20 mM Na-HEPES plus 10 mM EDTA and pH was adjusted to 7.4. Buffer 2 consisted of 20 mM Na-HEPES plus 0.1 mM EDTA and pH was adjusted to 7.4. Assay buffer consisted of 50 mM HEPES supplemented with 5 mM EGTA, 5 mM MgCl2, 0.005% Tween 20 and pH was adjusted to 7.4. An 8% albumin stock consisted of HSA dissolved at 8% (w/v) in assay buffer. An 0.02% albumin stock consisted of HSA dissolved at 0.02% (w/v) in assay buffer.
The cells express the human GLP-1 receptor.
The cells were grown at 5% CO2 in DMEM, 10% fetal calf serum, 1% Pen/Strep (Penicillin/Streptomycin) and 1.0 mg/ml of the selection marker G418. To make a membrane preparation the cells were grown to approximately 80% confluence. The cells were washed twice in phosphate-buffered saline and harvested. The cells were pelleted using a brief centrifugation and the cell pellet was kept on ice. […] The homogenate was centrifuged for 15 minutes. The pellet was re-suspended (homogenised) in 10 ml buffer 2 and centrifuged. This step was repeated once more. The resulting pellet was re-suspended in buffer 2 and the protein concentration was determined. The membranes were aliquoted and stored at minus 80° C.
1. […] Assay continued with step 3.
2. For the receptor binding assay in the presence of high HSA (2%) 50 μl of the 8% albumin stock was added to each well of an assay plate. Assay continued with step 3.
4. Cell membrane aliquots were thawed and diluted to their working concentration. Fifty μl were added to each well in the assay plate.
5. WGA SPA beads were suspended in assay buffer at 20 mg/ml. The suspension was diluted to 10 mg/ml in assay buffer just prior to addition to the assay plate. Fifty μl were added to each well in the assay plate.
6. […] A 25 μl aliquot was reserved for measuring total counts/well.
7. The assay plate was incubated for 2 h at 30° C.
8. The assay plate was centrifuged for 10 min.
9. The assay plate was read in a Packard TopCount NXT instrument.
The data from the TopCount instrument were transferred to GraphPad Prism software. Individual replicates were analysed using non-linear regression. IC50 values were calculated by the software and reported in nM. The reported values are averages of all of the measured values for each compound.

[2] = target: T1, human GLP-1 receptor; assay: In vitro potency: CRE luciferase reporter gene assay in BHK cells expressing the human GLP-1 receptor; assay type: cell-based; settings: whole cell reporter gene assay, BHK cells, human GLP-1 receptor; average of at least two replicates; read-out: EC50
Description: The purpose of this example is to test the activity, or potency, of the GLP-1 derivatives in vitro. The in vitro potency is the measure of human GLP-1 receptor activation in a whole cell assay.
In vitro potency was determined by measuring the response of the human GLP-1 receptor in a reporter gene assay. The assay was performed in a stably transfected BHK cell line that expresses the human GLP-1 receptor and contains the DNA for the cAMP response element (CRE) coupled to a promoter and the gene for firefly luciferase (CRE luciferase). When the human GLP-1 receptor is activated it results in the production of cAMP, which in turn results in the luciferase protein being expressed. When assay incubation is completed the luciferase substrate (luciferin) is added and the enzyme converts luciferin to oxyluciferin to produce bioluminescence. The luminescence is measured as the readout for the assay.
The cells were cultured at 5% CO2 in cell culture medium. They were aliquoted and stored in liquid nitrogen. Before each assay an aliquot was taken up and washed twice in PBS before being suspended at the desired concentration in the assay specific buffer.
The assay buffer consisted of 2% ovalbumin and 0.2% Pluronic F-68 in assay medium.
1) Cell stocks were thawed in a 37° C. water bath.
2) Cells were washed three times in PBS.
3) Cells were counted and adjusted to 5×10^3 cells/50 μl (1×10^5 cells/ml) in assay medium. A 50 μl aliquot of cells was transferred to each well in the assay plate.
4) Stocks of the test compounds and reference compounds were diluted to a concentration of 0.2 μM in assay buffer. […] 8) A 100 μl aliquot of steadylite plus reagent was added to each well of the assay plate. 9) Each assay plate was covered with aluminum foil to protect it from light and shaken for 30 min at room temperature. 10) Each assay plate was read in a BioTek Synergy 2 Multi-Mode Reader. Calculations and Results
The data from the BioTek Synergy 2 Multi-Mode Reader were transferred to GraphPad Prism software. The software performs a non-linear regression (log(agonist) vs response (three parameters)).
A minimum of two replicates were measured for each sample. The reported EC50 values are averages of all of the measured values for each compound.

[3] = high HSA (2.0% final assay concentration), read-out: High HSA IC50
[4] = low HSA (max. 0.001% final assay concentration), read-out: Low HSA IC50

IC50 [1, 3] [nM] | IC50 [1, 4] [nM] | EC50 [2] [pM] | SMILES
3.3 | 0.1 | 1.7 | CC[C@H](C)[C@H](NC(=O)[C@H](Cc1ccccc1)NC(=O)[C@H](CCC(=O)O)NC(=O)[C@H](CCCNC(=N)N)NC(=O)[C@H](C)NC(=O)[C@H](C)NC(=O)[C@H](CCC(N)=O)NC(=O)[C@H](CCC(=O)O)NC(=O)[C@H](CCC(=O)O)NC(=O)[C@H](CC(C)C)NC(=O)[C@H](Cc1ccc(O)cc1)NC(=O)[C@H](CO)NC(=O)[C@H](CO)NC(=O)[C@@H](NC(=O)[C@H](CC(=O)O)NC(=O)[C@H](CO)NC(=O)[C@@H](NC(=O)[C@H](Cc1ccccc1)NC(=O)[C@@H](NC(=O)CNC(=O)[C@H](CCC(=O)O)NC(=O)C(C)(C)NC(=O)[C@@H](N)Cc1c[nH]cn1)[C@@H](C)O)[C@@H](C)O)C(C)C)C(=O)N[C@@H](C)C(=O)N[C@@H](Cc1c[nH]c2ccccc12)C(=O)N[C@@H](CC(C)C)C(=O)N[C@H](C(=O)N[C@@H](CCCNC(=N)N)C(=O)NCC(=O)N[C@@H](CCCNC(=N)N)C(=O)N[C@@H](CCCCNC(=O)CN(CCCNC(=O)COCCOCCNC(=O)COCCOCCNC(=O)COCCOCCNC(=O)COCCOCCNC(=O)CC[C@H](NC(=O)CCCNC(=O)CCCCCCCCCCCCCCCS(=O)(=O)O)C(=O)O)CCCNC(=O)COCCOCCNC(=O)COCCOCCNC(=O)COCCOCCNC(=O)COCCOCCNC(=O)CC[C@H](NC(=O)CCCNC(=O)CCCCCCCCCCCCCCCS(=O)(=O)O)C(=O)O)C(=O)O)C(C)C [Example 16, N{Epsilon-37}-[2-[bis[3-[[2-[2-[2-[[2-[2-[2-[[2-[2-[2-[[2-[2-[2-[[(4S)-4-carboxy-4-[4-(16-sulfohexadecanoylamino)butanoylamino]butanoyl]amino]ethoxy]ethoxy]acetyl]amino]ethoxy]ethoxy]acetyl]amino]ethoxy]ethoxy]acetyl]amino]ethoxy]ethoxy]acetyl]amino]propyl]amino]acetyl]-[Aib8,Glu22,Arg26,Arg34,Lys37]-GLP-1-(7-37)-peptide]
3.2 | 0.16 | 1.2 | CC[C@H](C)[C@H](NC(=O)[C@H](Cc1ccccc1)NC(=O)[C@H](CCC(=O)O)NC(=O)[C@H](CCCNC(=N)N)NC(=O)[C@H](C)NC(=O)[C@H](C)NC(=O)[C@H](CCC(N)=O)NC(=O)[C@H](CCC(=O)O)NC(=O)[C@H](CCC(=O)O)NC(=O)[C@H](CC(C)C)NC(=O)[C@H](Cc1ccc(O)cc1)NC(=O)[C@H](CO)NC(=O)[C@H](CO)NC(=O)[C@@H](NC(=O)[C@H](CC(=O)O)NC(=O)[C@H](CO)NC(=O)[C@@H](NC(=O)[C@H](Cc1ccccc1)NC(=O)[C@@H](NC(=O)CNC(=O)[C@H](CCC(=O)O)NC(=O)C(C)(C)NC(=O)[C@@H](N)Cc1c[nH]cn1)[C@@H](C)O)[C@@H](C)O)C(C)C)C(=O)N[C@@H](C)C(=O)N[C@@H](Cc1c[nH]c2ccccc12)C(=O)N[C@@H](CC(C)C)C(=O)N[C@H](C(=O)N[C@@H](CCCNC(=N)N)C(=O)NCC(=O)N[C@@H](CCCNC(=N)N)C(=O)N[C@@H](CCCCNC(=O)CN(CCCNC(=O)COCCOCCNC(=O)COCCOCCNC(=O)COCCOCCNC(=O)COCCOCCNC(=O)COCCOCCNC(=O)CC[C@H](NC(=O)CCCNC(=O)CCCCCCCCCCCCCCCS(=O)(=O)O)C(=O)O)CCCNC(=O)COCCOCCNC(=O)COCCOCCNC(=O)COCCOCCNC(=O)COCCOCCNC(=O)COCCOCCNC(=O)CC[C@H](NC(=O)CCCNC(=O)CCCCCCCCCCCCCCCS(=O)(=O)O)C(=O)O)C(=O)O)C(C)C [Example 17, N{Epsilon-37}-[2-[bis[3-[[2-[2-[2-[[2-[2-[2-[[2-[2-[2-[[2-[2-[2-[[2-[2-[2-[[(4S)-4-carboxy-4-[4-(16-sulfohexadecanoylamino)butanoylamino]butanoyl]amino]ethoxy]ethoxy]acetyl]amino]ethoxy]ethoxy]acetyl]amino]ethoxy]ethoxy]acetyl]amino]ethoxy]ethoxy]acetyl]amino]ethoxy]ethoxy]acetyl]amino]propyl]amino]acetyl]-[Aib8,Glu22,Arg26,Arg34,Lys37]-GLP-1-(7-37)-peptide]
